From PubChem BioAssay AID1645868 (Buhrlage Lab, Dana-Farber Cancer Institute and Novartis …, 2021)
Activity calls are given as the source filed them.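 Rule for the calls: active = maximal percent inhibition of the deubiquitinase OTUD3 of at least 30% across the tested doses; inactive = the rest.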

Target: OTU domain-containing protein 3 (Homo sapiens) (UniProt Q5T2D3)
Experiment: Validation of screening hits, potency titration, in vitro enzymatic, OTU domain-containing protein 3 DUB inhibitors (AID 1645868)
Details: purified OTUD3, ubiquitin-rhodamine cleavage fluorescence, 2 h

Chain of OTU domain-containing protein 3 (Homo sapiens) (Q5T2D3 whole entry, looked up, the tested form may be a part): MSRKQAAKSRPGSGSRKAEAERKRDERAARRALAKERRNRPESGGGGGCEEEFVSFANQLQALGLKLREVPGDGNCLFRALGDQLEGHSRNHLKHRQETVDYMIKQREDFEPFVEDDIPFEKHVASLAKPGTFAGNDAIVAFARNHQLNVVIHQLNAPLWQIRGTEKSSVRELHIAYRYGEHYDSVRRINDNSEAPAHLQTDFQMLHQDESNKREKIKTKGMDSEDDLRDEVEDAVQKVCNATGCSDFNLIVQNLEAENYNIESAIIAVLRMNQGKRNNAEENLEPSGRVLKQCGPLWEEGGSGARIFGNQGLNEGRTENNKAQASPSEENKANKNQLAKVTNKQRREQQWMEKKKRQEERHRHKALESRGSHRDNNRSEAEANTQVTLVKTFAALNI

SMILES	IC50
O=C(COC(=O)c1ccc2ncsc2c1)Nc1ccccc1F	> 50 µM (inactive)
CCc1nc(N2CCCC2=O)sc1C(=O)Nc1cccc(C(C)=O)c1	> 50 µM (inactive)
O=C(COc1ccc(Cl)cc1)Nc1noc(-c2ccccc2)n1	29.2 µM
COc1cccc(N2CCN(C(=O)Nc3ccc4c(c3)NC(=O)CO4)CC2)c1	22.4 µM
COc1ccc(C)cc1NC(=O)C1CC(=O)Nc2nc3ccccc3n21 (stereo not drawn)	40.2 µM
Cc1ccc2c(c1)c(=O)c(C(=O)c1ccc(F)cc1)cn2CC(=O)Nc1ccc2c(c1)OCCO2	> 50 µM (inactive)
O=C(O)C1CCN(Cc2c(-c3ccco3)nc3ccc(Cl)cn23)CC1	> 50 µM (inactive)
Cc1ccc(CNC(=O)Cn2c(=O)n(-c3ccccc3)c3ncccc32)cc1	> 50 µM (inactive)
Cc1cc(O)c2c3c(c(O)cc2c1)C(=O)c1c(O)cccc1C3=O	4.84 µM
Cc1ccc(NC(=O)/C=C/c2cccc(C(F)(F)F)c2)c(O)c1	30.5 µM
CC(Nc1ncnc2c1sc1nc(N3CCOCC3)c3c(c12)CCC3)c1ccccc1 (stereo not drawn)	> 50 µM (inactive)
CCOc1ccc2c(c1)c(=O)c(C(=O)c1ccccc1)cn2CC(=O)Nc1ccc2c(c1)OCCO2	43 µM
Cc1ccc(C(=O)NCCc2nc(-c3ccc4c(c3)OCO4)n[nH]2)cc1F	> 50 µM (inactive)
Cc1ccccc1C(=O)Nc1ccc(Cc2ccc(NC(=O)c3ccccc3C)c(O)c2)cc1O	> 50 µM (inactive)
CC(C)c1cc(Nc2cccc(F)c2)n2nc(-c3cccnc3)nc2n1	> 50 µM (inactive)
O=C(Nc1ccccc1-c1nc2ccccc2[nH]1)c1sc2ccccc2c1Cl	4.1 µM
COc1ccc(OC)c(-c2c(C#N)c(C)nc3c2N2CCC3CC2)c1	25 µM
Cc1ccc(NC(=O)CSc2nc3c(cc2C#N)C(=O)CCC3)cc1	30.2 µM
COC(=O)c1sccc1NC(=O)COc1ccsc1C(=O)OC	> 50 µM (inactive)
Cc1cc(O)cc2cc3c(c(O)c12)C(=O)CCC3O (stereo not drawn)	> 50 µM (inactive)
O=C(Nc1cc(Cl)ccc1-n1cncn1)c1ccc(S(=O)(=O)N2CCCC2)cc1	> 50 µM (inactive)
Cc1ccc(-c2nc(N3CCCC(O)C3)ncc2-c2cnccn2)s1 (stereo not drawn)	> 50 µM (inactive)
COc1cccc(-n2cnc3cc(C(=O)NC4CC4)ccc3c2=O)c1	> 50 µM (inactive)
COc1ccc(-n2ccn3c(CCC(=O)NCc4ccc(F)cc4)nnc3c2=O)cc1	33.3 µM

SMILES	IC50
O=C(O)c1ccccc1C(=O)Nc1ccc(SC(C(=O)Nc2ccccc2)c2ccccc2)cc1 (stereo not drawn)	> 50 µM (inactive)
CC(C)OC(=O)c1cc2c(ccn2C)n1CC(=O)N1CCN(C(=O)c2ccco2)CC1	> 50 µM (inactive)
Cn1ccc2c(cc(C(=O)NCCC3=CCCCC3)n2C)c1=O	> 50 µM (inactive)
O=C(Nc1ccc(F)cc1)Nc1ccccc1OCc1cc(=O)n2ccccc2n1	39.3 µM
Cc1ccccc1C(=O)c1ccc(C(=O)NC2CCCCCC2)[nH]1	20.7 µM
COc1cccc(OCCCn2c(C(C)NC(=O)c3ccco3)nc3ccccc32)c1 (stereo not drawn)	32.8 µM
O=C(NCc1ccc(-c2nc3cnccc3o2)cc1)c1ccccc1Br	> 50 µM (inactive)
Cc1ccc(CSC2=NS(=O)(=O)c3ccccc3N2)cc1	> 50 µM (inactive)
Cc1sc(-c2ccc(Cl)nc2)nc1OC(=O)c1ccc(F)cc1F	> 50 µM (inactive)
Cc1ccccc1OCCC(=O)Nc1cccc(S(=O)(=O)Nc2ccccc2Cl)c1	> 50 µM (inactive)
CC(=O)c1ccc(N2C(=O)N(Cc3cccc([N+](=O)[O-])c3)c3ccccc3S2(=O)=O)cc1	> 50 µM (inactive)
CCOC(=O)c1ccc(NC(=O)C[n+]2cc(-c3ccc(Cl)cc3)n3c2CCC3)cc1	> 50 µM (inactive)
O=C(CC1C(=O)Nc2nc(-c3ccccc3)nn21)Nc1cccc2ccccc12 (stereo not drawn)	25 µM
COc1ccc(NC(=O)C2C3C=CC4(O3)C2C(=O)N(CCc2ccccc2)C4C(=O)NC2CCCCC2)cc1 (stereo not drawn)	26.6 µM
COc1ccc(C(C(=O)NC2CCCCC2)N(C(=O)CCCC(=O)Nc2ccccn2)c2ccccc2C)cc1 (stereo not drawn)	22.3 µM
COc1cc2c(cc1OC)-c1cc(NCc3cc(OC)c(OC)c(OC)c3)nc(=O)n1CC2	> 50 µM (inactive)
O=C(Nc1ccc2c(c1)N(C(=O)C1CCCC1)CC2)c1c(F)cccc1F	> 50 µM (inactive)
Cc1cc(C)cc(N(CCC(=O)Nc2ccc(N3CCOCC3)cc2)S(=O)(=O)c2ccc(Cl)cc2)c1	19.7 µM
COc1ccc(CCNC(=O)c2noc3c2CCc2sccc2-3)cc1OC	> 50 µM (inactive)
O=c1[nH]c2ccccc2cc1CN(Cc1ccco1)S(=O)(=O)c1ccc(F)cc1	> 50 µM (inactive)
CC(C)NC(=O)CN1C(=O)CC(C)Sc2ccc(S(=O)(=O)N3CCCCC3)cc21 (stereo not drawn)	31.7 µM
CCN1C(=O)c2cccnc2Sc2cc(NC(=O)c3ccc(Cl)s3)ccc21	> 50 µM (inactive)
COCCCNC(=O)c1ccc(Cn2c(=O)c3ccccc3n(CC(=O)NC3CCCCC3)c2=O)cc1	32.3 µM
O=C(Cn1nc2ccc(C(=O)NCc3ccccc3)cn2c1=O)Nc1ccc2c(c1)OCO2	38.4 µM

SMILES	IC50
CCn1ccc2c(cc(C(=O)Nc3cccc(OC)c3)n2C)c1=O	> 50 µM (inactive)
CC(=O)Nc1ccc(S(=O)(=O)NCc2ccc(C(=O)NCCc3ccc(Cl)cc3)cc2)cc1	11.8 µM
CCc1ccc(OCc2nnc(SCC(=O)Nc3ccccc3OC)n2Cc2ccccc2)cc1	> 50 µM (inactive)
Cc1cc(C(F)(F)F)n(-c2ccc(NC(=O)Nc3cccc(C(F)(F)F)c3)cc2)n1	11.4 µM
COc1ccc(CCNC(=O)c2ccc3ccccc3c2)cc1OC	> 50 µM (inactive)
O=C(Nc1cccc(Cl)c1)N1CCC(c2cc(-c3ccco3)n[nH]2)CC1	> 50 µM (inactive)
COc1cc([C@@H]2c3cc4c(cc3C[C@@H]3COC(=O)[C@H]32)OCO4)cc(OC)c1OC	20.5 µM
Cn1c(C(=O)NCc2ccccn2)cc2c(=O)[nH]c3ccccc3c21	> 50 µM (inactive)
COCCCNC(=O)c1ccc(Cn2c(=O)c3ccccc3n(CC(=O)Nc3ccc(OC)cc3)c2=O)cc1	28.1 µM
CNC(=O)c1cc2c(=O)n3cccc(C)c3nc2n1Cc1ccccc1	> 50 µM (inactive)
C=Cc1ccc(Cn2cc(S(=O)(=O)N3CCOCC3)ccc2=O)cc1	> 50 µM (inactive)
CC(OC(=O)c1cn(-c2ccccc2)nc1-c1cccnc1)C(=O)Nc1cccc(S(=O)(=O)N(C)C)c1 (stereo not drawn)	> 50 µM (inactive)
Cc1nn(-c2cc(N3CCOCC3)ncn2)c(C)c1CCC(=O)Nc1ccc(C(C)C)cc1	33.3 µM
O=C(Cn1cnc(-c2noc(-c3ccncc3)n2)c1)N1CCN(c2ccccc2F)CC1	> 50 µM (inactive)
Cc1cc(CSc2ncccc2C(=O)Nc2ccnn2Cc2cccnc2)no1	> 50 µM (inactive)
COc1ccc(-c2cnnn2-c2ccc(NC(=O)c3c(F)cccc3F)cc2)cc1OC	> 50 µM (inactive)
Cc1cccc(NC(=O)Nc2ccc(C)n(CC(=O)Nc3ccccc3)c2=O)c1	> 50 µM (inactive)
O=C(CN1C(=O)COc2ccc(Cl)cc21)Nc1cccc2ncccc12	> 50 µM (inactive)
O=S(=O)(c1ccccc1Cl)N1CCN(c2ccc3nnc(-c4ccco4)n3n2)CC1	> 50 µM (inactive)
O=c1ccc(-c2noc(-c3ccc4cc[nH]c4c3)n2)c[nH]1	> 50 µM (inactive)
O=c1[nH]c2ccc(S(=O)(=O)Nc3ccc(O)c4ccccc34)cc2[nH]1	> 50 µM (inactive)
COc1ccc(-c2cc(C(C)=O)c(C)n2CCC(=O)Nc2ccc(OC)cc2OC)cc1	> 50 µM (inactive)
COc1ccc(C)cc1NC(=O)Cc1csc(NC(=O)c2ccc(=O)[nH]c2)n1	> 50 µM (inactive)
COc1ccc(C(=O)Nc2ccc3c(c2)C(=O)N(C)c2ccccc2O3)cc1	> 50 µM (inactive)

SMILES	IC50
CCN1C[C@@H]2C[C@]2(c2ccccc2OC)C(=O)c2ncccc21	> 50 µM (inactive)
O=C1N(Cc2ccc(F)cc2)CCN1c1ccc2c(c1)CCC2	> 50 µM (inactive)
C/C1=C\CCC(C)C(O)CC(O)C(C)C(O)CCC(C)C(O)CC2(O)OC(CC(OC(=O)CC(=O)O)CC(O)CC(O)CC(O)C(C)C(O)/C=C/C(C)C(C(C)CCCCCCCCN=C(N)N)OC1=O)CC(O)C2O (stereo not drawn)	> 50 µM (inactive)
CCn1c(=O)c(=O)[nH]c2cc(C(=O)Nc3cccc(-c4csc(C)n4)c3)ccc21	> 50 µM (inactive)
COc1ccc(C2C(C(=O)Nc3ccccc3OC)=C(C)Nc3nnnn32)cc1Br (stereo not drawn)	> 50 µM (inactive)
CO[C@H]1[C@@H](O)[C@H](C)O[C@H](O[C@H]2[C@H](Oc3cccc4c(O)c5c(=O)oc6ccc(C)c7c(=O)oc(c34)c5c67)O[C@H](C)[C@H](O)[C@@H]2O)[C@@H]1O	> 50 µM (inactive)
O=C(CC1C(=O)N(Cc2ccccc2)c2nc3ccccc3n21)NCCc1ccccc1 (stereo not drawn)	19.7 µM
O=C(CCn1c(=O)c2ccccc2n(Cc2cc(=O)n3ccccc3n2)c1=O)NCCc1ccc(Cl)cc1	30.6 µM
CCOC(=O)c1cc2c(ccn2C)n1CC(=O)N1CCC(C)CC1	> 50 µM (inactive)
Cc1nnc(-c2nnc(NCc3ccc(Cl)cc3)c3ccccc23)o1	> 50 µM (inactive)
O=S(=O)(Nc1ccc2oc(-c3ccncc3)nc2c1)c1ccccc1	> 50 µM (inactive)
O=C(NCc1ccc(Br)cc1)c1ccc(-c2cccnc2)nc1	> 50 µM (inactive)
Cc1ncncc1C(=O)N1CCCC(C)(c2ncc(Cc3cccc(F)c3)o2)C1 (stereo not drawn)	> 50 µM (inactive)
Cc1noc(-c2cccn(Cc3cccc(C(F)(F)F)c3)c2=O)n1	> 50 µM (inactive)
Cc1cc(SCc2ncon2)c(C)cc1Cl	> 50 µM (inactive)
CCOc1ccc(C(=O)Cn2c(=O)n(CC3CCCO3)c(=O)c3cc(OC)c(OC)cc32)cc1Cl (stereo not drawn)	45.1 µM
Cc1ccc(-c2c(C(=O)Nc3ccc(S(N)(=O)=O)cc3)oc(=O)c3ccccc23)cc1	35 µM
CCn1cc(-c2nc(-c3ccccn3)no2)c(=O)c2cc(F)ccc21	> 50 µM (inactive)
CN1CCN(C(=O)c2cc(-c3ccn(CC4CC4)n3)n3ccccc23)CC1	> 50 µM (inactive)
CC1Oc2ccccc2C(=O)N(Cc2ccc([N+](=O)[O-])cc2)C1=O (stereo not drawn)	> 50 µM (inactive)
O=C(NC1CCS(=O)(=O)C1)c1ccc(N2CCC(Cc3ccccc3)CC2)nn1 (stereo not drawn)	> 50 µM (inactive)
